Measured values taken from US12059422B2 (MEI Pharma, Inc., priority 2011, dated 2024).

Target: T1, PI3Kβ (Homo sapiens, UniProt P42338)
T1 construct: endogenous in cells; host or cells: PC-3 (ATCC #CRL-1435)
Test: ELISA assay for PI3Kβ: in-cell ELISA, phosphorylation of AKT (Ser473) in PC-3 cells
Type: cell-based
Settings: for IC50: cellular, pAKT (Ser473), PC-3 cells, LPA stimulation, read-out: IC50 p110β; for α/β ratio: ratio of cellular IC50 values, Table 2
Method: Cellular PI3Kβ activity was determined by measuring the phosphorylation of AKT (Ser473) using an in-cell ELISA assay. PC-3 (prostate carcinoma) cells were obtained from ATCC (ATCC #CRL-1435). Growth medium was DMEM (CellGro #CV-10-013-CV) supplemented with 10% fetal bovine serum, 100 IU/mL penicillin, 100 μg/mL streptomycin, and 1×MEM non-essential amino acids. Phosphate buffered saline (PBS) contained 2.7 M NaCl, 54 mM KCl, 86 mM […] (dibasic, anhydrous), 28 mM […] (monobasic, anhydrous), pH 7.2, 10× stimulation mixture contained 50 μM LPA (Cayman #62215) diluted in serum-free DMEM medium (CellGro #CV-10-013-CV). Compounds for testing were dissolved and serially diluted in 100% DMSO (total of 10 concentrations), then diluted in serum-free DMEM to 2× final assay concentration. 2× fixative solution contained 8% formaldehyde (Amresco #M134) diluted in PBS. Permeabilization solution contained PBS supplemented with 0.1% Triton X-100. Blocking buffer was obtained from LiCor (LiCor #927-40000). Wash buffer contained PBS supplemented with 0.1% Tween-20. Primary antibody solution was rabbit anti-pAKT^S473 monoclonal antibody (Cell Signaling #4060) and mouse anti-total S6 (Santa Cruz #74459) diluted 1:500 and 1:2000, respectively, in blocking buffer. Secondary antibody solution was IRDye 800CW-conjugated goat anti-rabbit IgG (LiCor #926-32211) and IRDye 680LT-conjugated goat anti-mouse IgG (LiCor #926-68020) diluted 1:2000 and 1:1000, respectively, in blocking buffer.
PC-3 cells were subcultured in growth medium and seeded into flat, clear bottom, 96-well plates (Corning #3904) at 16000 cells/well, then incubated overnight in a 37° C., 5% CO2 incubator. Growth medium in plates was replaced with 100 μL/well serum-free DMEM and incubated overnight in a 37° C., 5% CO2 incubator. 50 μL/well of fresh serum-free DMEM was added to plates. Compound treatment was performed by adding 50 μL/well of 2× compound mixture to plates and incubating for 2 hrs at 37° C., 5% CO2, after which 11 μL/well of 10× stimulation mixture was added and plates were incubated for 10 min at 37° C., 5% CO2. Fixation was performed by adding 110 μL/well of 2× fixative solution to plates and incubating for 20 min at room temperature. Permeabilization was performed by replacing fixation solution with 150 μL/well permeabilization solution and incubating for 10 min at room temperature. Permeabilization was repeated (for a total of 2 times). Permeabilization solution was replaced with 100 μL/well blocking buffer and plates were incubated for 1 hr at room temperature, after which 100 μL/well of primary antibody solution was added and plates were incubated overnight at 4° C. Plates were washed with wash buffer, after which 100 μL/well of secondary antibody solution was added to the plates and incubated in the dark for 1 hr at room temperature. Plates were washed with wash buffer, followed by awash with PBS. After completely removing PBS, plates were scanned on the Licor Odyssey Imager. Images quantified using Licor Odyssey application software. IC50 values were determined by curve fitting using a Collaborative Drug Discovery database (www.collaborativedrug.com).

T1 sequence (P42338 whole entry): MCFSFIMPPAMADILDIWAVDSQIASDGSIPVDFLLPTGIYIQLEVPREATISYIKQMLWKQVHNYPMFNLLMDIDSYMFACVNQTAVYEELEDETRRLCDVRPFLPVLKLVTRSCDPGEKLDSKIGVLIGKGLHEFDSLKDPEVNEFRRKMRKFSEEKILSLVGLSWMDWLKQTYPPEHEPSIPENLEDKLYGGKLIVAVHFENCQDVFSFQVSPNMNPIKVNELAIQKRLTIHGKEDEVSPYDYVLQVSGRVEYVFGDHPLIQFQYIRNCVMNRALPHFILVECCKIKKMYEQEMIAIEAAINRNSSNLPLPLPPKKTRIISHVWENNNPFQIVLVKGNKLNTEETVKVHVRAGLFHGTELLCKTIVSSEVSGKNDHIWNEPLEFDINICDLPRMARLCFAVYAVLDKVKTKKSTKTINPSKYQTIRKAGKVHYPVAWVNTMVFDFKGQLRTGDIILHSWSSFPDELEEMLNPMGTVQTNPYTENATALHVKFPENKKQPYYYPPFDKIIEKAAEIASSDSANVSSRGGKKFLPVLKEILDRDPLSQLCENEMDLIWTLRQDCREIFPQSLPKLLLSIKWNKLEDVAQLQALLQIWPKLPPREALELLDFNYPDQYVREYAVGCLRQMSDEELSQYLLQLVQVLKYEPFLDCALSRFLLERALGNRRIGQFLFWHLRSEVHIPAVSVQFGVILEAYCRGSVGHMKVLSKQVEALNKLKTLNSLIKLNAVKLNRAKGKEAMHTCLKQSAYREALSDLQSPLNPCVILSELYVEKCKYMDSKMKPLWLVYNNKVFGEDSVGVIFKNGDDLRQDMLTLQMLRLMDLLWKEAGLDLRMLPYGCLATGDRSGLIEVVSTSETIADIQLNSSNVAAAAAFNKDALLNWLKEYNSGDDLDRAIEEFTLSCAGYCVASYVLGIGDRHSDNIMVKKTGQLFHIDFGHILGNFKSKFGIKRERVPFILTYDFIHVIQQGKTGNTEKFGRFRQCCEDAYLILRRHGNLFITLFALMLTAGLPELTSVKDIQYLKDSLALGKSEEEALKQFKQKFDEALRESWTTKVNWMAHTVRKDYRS
T1 sequence (P27986 whole entry partner): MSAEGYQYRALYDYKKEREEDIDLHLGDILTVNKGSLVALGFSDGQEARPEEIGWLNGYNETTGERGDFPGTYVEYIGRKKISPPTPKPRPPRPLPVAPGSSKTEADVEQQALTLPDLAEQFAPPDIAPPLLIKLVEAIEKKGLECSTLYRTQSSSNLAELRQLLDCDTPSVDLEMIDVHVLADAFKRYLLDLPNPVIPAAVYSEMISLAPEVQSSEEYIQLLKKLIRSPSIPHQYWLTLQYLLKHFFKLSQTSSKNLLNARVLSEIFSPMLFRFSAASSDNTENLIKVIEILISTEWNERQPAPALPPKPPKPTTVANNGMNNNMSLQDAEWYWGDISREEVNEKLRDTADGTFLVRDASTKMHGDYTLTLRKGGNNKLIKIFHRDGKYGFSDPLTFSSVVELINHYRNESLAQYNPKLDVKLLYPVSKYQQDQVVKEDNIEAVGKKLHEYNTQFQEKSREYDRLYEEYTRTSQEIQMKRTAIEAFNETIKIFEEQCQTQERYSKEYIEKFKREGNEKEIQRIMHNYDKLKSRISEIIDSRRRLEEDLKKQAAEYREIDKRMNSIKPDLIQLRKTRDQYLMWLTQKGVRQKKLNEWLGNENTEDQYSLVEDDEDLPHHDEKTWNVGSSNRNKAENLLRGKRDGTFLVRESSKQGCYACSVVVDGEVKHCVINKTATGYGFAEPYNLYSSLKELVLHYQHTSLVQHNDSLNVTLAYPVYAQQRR

Row | Compound | IC50 [nM] | α/β ratio
1 | CN1CCN(c2cc(-c3ccccc3CC(C)(C)Nc3nc(N4CCOCC4)nc(-n4c(C(F)F)nc5ccccc54)n3)ccn2)CC1 [Compound A64, 4-(2-(difluoromethyl)-1H-benzo[d]imidazol-1-yl)-N-(2-methyl-1-(2-(2-(4-methylpiperazin-1-yl)pyridin-4-yl)phenyl)propan-2-yl)-6-morpholino-1,3,5-triazin-2-amine] | ≤ 100 | A’
2 | CC(C)(Cc1cccc(F)c1)Nc1nc(N2CCOCC2)nc(-n2c(C(F)F)nc3ccccc32)n1 [Compound A39, 4-(2-(difluoromethyl)-1H-benzo[d]imidazol-1-yl)-N-(1-(3-fluorophenyl)-2-methylpropan-2-yl)-6-morpholino-1,3,5-triazin-2-amine] | ≤ 100 | A’
3 | Cn1cc(-c2ccccc2CC(C)(C)Nc2nc(N3CCOCC3)nc(-n3c(C(F)F)nc4ccccc43)n2)cn1 [Compound A45, 4-(2-(difluoromethyl)-1H-benzo[d]imidazol-1-yl)-N-(2-methyl-1-(2-(1-methyl-1H-pyrazol-4-yl)phenyl)propan-2-yl)-6-morpholino-1,3,5-triazin-2-amine] | ≤ 100 | A’
4 | CC(C)(Cc1cccc2ccccc12)Nc1nc(N2CCOCC2)nc(-n2c(C(F)F)nc3ccccc32)n1 [Compound A27, 4-(2-(difluoromethyl)-1H-benzo[d]imidazol-1-yl)-N-(2-methyl-1-(naphthalen-1-yl)propan-2-yl)-6-morpholino-1,3,5-triazin-2-amine] | ≤ 100 | –
5 | CC(C)(Cc1ccccc1C1CCNCC1)Nc1nc(N2CCOCC2)nc(-n2c(C(F)F)nc3ccccc32)n1 [Compound A68, 4-(2-(difluoromethyl)-1H-benzo[d]imidazol-1-yl)-N-(2-methyl-1-(2-(piperidin-4-yl)phenyl)propan-2-yl)-6-morpholino-1,3,5-triazin-2-amine] | ≤ 100 | A’
6 | CC(C)(Cc1ccccc1)Nc1nc(N2CCOCC2)nc(-n2c(C(F)F)nc3ccccc32)n1 [Compound A14, 4-(2-(difluoromethyl)-1H-benzo[d]imidazol-1-yl)-N-(2-methyl-1-phenylpropan-2-yl)-6-morpholino-1,3,5-triazin-2-amine] | ≤ 100 | B’
7 | CC(C)(Cc1ccccc1C1CCNC1)Nc1nc(N2CCOCC2)nc(-n2c(C(F)F)nc3ccccc32)n1 (stereo not drawn) [Compound A74, 4-(2-(difluoromethyl)-1H-benzo[d]imidazol-1-yl)-N-(2-methyl-1-(2-(pyrrolidin-3-yl)phenyl)propan-2-yl)-6-morpholino-1,3,5-triazin-2-amine] | ≤ 100 | A’
8 | CC(C)(Cc1ccc(F)cc1F)Nc1nc(N2CCOCC2)nc(-n2c(C(F)F)nc3ccccc32)n1 [Compound A51, 4-(2-(difluoromethyl)-1H-benzo[d]imidazol-1-yl)-N-(1-(2,4-difluorophenyl)-2-methylpropan-2-yl)-6-morpholino-1,3,5-triazin-2-amine] | 100 to 200 | C’
9 | COc1ccccc1CC(C)(C)Nc1nc(N2CCOCC2)nc(-n2c(C(F)F)nc3ccccc32)n1 [Compound A19, 4-(2-(difluoromethyl)-1H-benzo[d]imidazol-1-yl)-N-(1-(2-methoxyphenyl)-2-methylpropan-2-yl)-6-morpholino-1,3,5-triazin-2-amine] | ≤ 100 | –
10 | Cc1cccc(CC(C)(C)Nc2nc(N3CCOCC3)nc(-n3c(C(F)F)nc4ccccc43)n2)c1 [Compound A49, 4-(2-(difluoromethyl)-1H-benzo[d]imidazol-1-yl)-N-(2-methyl-1-m-tolylpropan-2-yl)-6-morpholino-1,3,5-triazin-2-amine] | ≤ 100 | B’
11 | CC(C)(Cc1ccccc1-c1cccnc1)Nc1nc(N2CCOCC2)nc(-n2c(C(F)F)nc3ccccc32)n1 [Compound A40, 4-(2-(difluoromethyl)-1H-benzo[d]imidazol-1-yl)-N-(2-methyl-1-(2-(pyridin-3-yl)phenyl)propan-2-yl)-6-morpholino-1,3,5-triazin-2-amine] | ≤ 100 | A’
12 | CC(C)(Cc1ccccc1-c1cncnc1)Nc1nc(N2CCOCC2)nc(-n2c(C(F)F)nc3ccccc32)n1 [Compound A63, 4-(2-(difluoromethyl)-1H-benzo[d]imidazol-1-yl)-N-(2-methyl-1-(2-(pyrimidin-5-yl)phenyl)propan-2-yl)-6-morpholino-1,3,5-triazin-2-amine] | ≤ 100 | A’
13 | Cc1cc(-c2ccccc2CC(C)(C)Nc2nc(N3CCOCC3)nc(-n3c(C(F)F)nc4ccccc43)n2)ccn1 [Compound A43, 4-(2-(difluoromethyl)-1H-benzo[d]imidazol-1-yl)-N-(2-methyl-1-(2-(2-methylpyridin-4-yl)phenyl)propan-2-yl)-6-morpholino-1,3,5-triazin-2-amine] | ≤ 100 | C’
14 | Cn1nccc1-c1ccccc1CC(C)(C)Nc1nc(N2CCOCC2)nc(-n2c(C(F)F)nc3ccccc32)n1 [Compound A46, 4-(2-(difluoromethyl)-1H-benzo[d]imidazol-1-yl)-N-(2-methyl-1-(2-(1-methyl-1H-pyrazol-5-yl)phenyl)propan-2-yl)-6-morpholino-1,3,5-triazin-2-amine] | ≤ 100 | A’
15 | CC(C)(Cc1ccccc1-c1cn[nH]c1)Nc1nc(N2CCOCC2)nc(-n2c(C(F)F)nc3ccccc32)n1 [Compound A44, 4-(2-(difluoromethyl)-1H-benzo[d]imidazol-1-yl)-N-(1-(2-(1H-pyrazol-4-yl)phenyl)-2-methylpropan-2-yl)-6-morpholino-1,3,5-triazin-2-amine] | ≤ 100 | A’
16 | COc1cc(-c2ccccc2CC(C)(C)Nc2nc(N3CCOCC3)nc(-n3c(C(F)F)nc4ccccc43)n2)ccn1 [Compound A41, 4-(2-(difluoromethyl)-1H-benzo[d]imidazol-1-yl)-N-(1-(2-(2-methoxypyridin-4-yl)phenyl)-2-methylpropan-2-yl)-6-morpholino-1,3,5-triazin-2-amine] | 100 to 200 | B’
17 | CC(C)(Cc1ccccc1-c1ccccc1F)Nc1nc(N2CCOCC2)nc(-n2c(C(F)F)nc3ccccc32)n1 [Compound A59, 4-(2-(difluoromethyl)-1H-benzo[d]imidazol-1-yl)-N-(1-(2′-fluorobiphenyl-2-yl)-2-methylpropan-2-yl)-6-morpholino-1,3,5-triazin-2-amine] | 100 to 200 | A’
18 | CC(=O)N1CCC(c2ccccc2CC(C)(C)Nc2nc(N3CCOCC3)nc(-n3c(C(F)F)nc4ccccc43)n2)CC1 [Compound A72, 4-(2-(difluoromethyl)-1H-benzo[d]imidazol-1-yl)-N-(2-methyl-1-(2-(1-acetylpiperidin-4-yl)phenyl)propan-2-yl)-6-morpholino-1,3,5-triazin-2-amine] | ≤ 100 | A’
19 | COc1ccc(-c2ccccc2CC(C)(C)Nc2nc(N3CCOCC3)nc(-n3c(C(F)F)nc4ccccc43)n2)cc1 [Compound A67, 4-(2-(difluoromethyl)-1H-benzo[d]imidazol-1-yl)-N-(1-(4′-methoxybiphenyl-2-yl)-2-methylpropan-2-yl)-6-morpholino-1,3,5-triazin-2-amine] | 200 to 500 | A’
